The record followed here is US20140336182A1, “Aurora Kinase Modulators and Method of Use” (Amgen Inc., priority 2013, published 2014).

The structures appear in SMILES notation.

The first assay relates to HeLa cells. Kind of assay: HeLa cell 24 hr ploidy assay (DNA content). Conditions: HeLa cells, 4N ploidy, average, read-out: 24h_4NPloidy EC50_IP (uM Avg). It counts as cell-based. Summed up: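 DNA content measured by Hoechst 33342 nuclear staining (0.5 ug/ml, 45 min RT) and high-content imaging of fixed HeLa cells after 24 h compound exposure in 0.25% DMSO. Fractions of 4N and >4N cells fitted to dose curves giving EC50 IP, EC50 transit, Max and Min.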
Consider `Clc1ccc(-c2nnc(Nc3ccc(Sc4ccnc5cccnc45)cc3)c3ccccc23)cc1` [compound 308], for which the EC50 was 0.006 µM.

The same assay, now with this note: Homo sapiens, HeLa, 4N ploidy, average, read-out: 24h_4NPloidy EC50_IP (uM Avg).
Take `COc1ccc2c(Oc3ccc(Nc4nnc(-c5ccccc5)c5ccccc45)cc3)ccnc2c1` [compound 91]: the EC50 stood at 0.03 µM. Consider `COc1cnc2c(Oc3ccc(Nc4nnc(N5CCN6CCCC6C5)c5ccccc45)cc3)ccnc2c1` (stereo not drawn) [compound 92], for which the EC50 worked out at 0.054 µM. On the same count and under the same terms, as for `COc1cnc2c(Oc3ccc(Nc4nnc(-c5ccc(OC)nc5)c5ccccc45)cc3)ccnc2c1` [compound 158], the figure is 0.075 µM; as for `COc1cnc2c(Oc3ccc(Nc4nnc(-c5ccc6sccc6c5)c5ccccc45)cc3)ccnc2c1` [compound 142], 0.007 µM.

Still in this assay, the particulars now being: Homo sapiens, HeLa, HeLa cells, 4N ploidy, average, read-out: 24h_4NPloidy EC50_IP (uM Avg).
Regarding `COc1cnc2c(Sc3ccc(Nc4nnc(-c5cc(C)cs5)c5ccccc45)cc3)ccnc2c1` [compound 271, N-(4-(7-methoxy-1,5-naphthyridin-4-ylthio)phenyl)-4-(4-methylthiophen-2-yl)phthalazin-1-amine], the EC50 is 0.004 µM. For the molecule `COc1cnc2c(Oc3ccc(Nc4nnc(-c5ccc(C)c(N)c5)c5ccccc45)cc3)ccnc2c1` [compound 209], the EC50 turned out to be 0.004 µM. For the molecule `COc1cnc2c(Oc3ccc(Nc4nnc(-c5ccccc5)c5ccsc45)cc3)ccnc2c1` [compound 218, N-(4-((7-(methyloxy)-1,5-naphthyridin-4-yl)oxy)phenyl)-4-phenylthieno[2,3-d]pyridazin-7-amine], the EC50 amounted to 0.061 µM. On to `CCc1cc(-c2ccc(Cl)cc2)nnc1Nc1ccc(Oc2ccnc3cc(OC)cnc23)cc1` [compound 256], for which the EC50 came to 0.049 µM. Take `CCc1cc(-c2ccc3c(c2)OCO3)nnc1Nc1ccc(Oc2ccnc3cc(OC)cnc23)cc1` [compound 594]: the EC50 came out at 0.202 µM. Still for that read-out and setting: as for `COc1cnc2c(Sc3ccc(Nc4nnc(N5CCCC5)c5ccccc45)cc3)ccnc2c1` [compound 521], the figure is 0.021 µM; as for `O=C(Nc1cc(Oc2ccc(Nc3nnc(-c4ccccc4)c4ccccc34)cc2F)ccn1)N1CCOCC1` [compound 179], 0.226 µM. As for `COc1cnc2c(Sc3ccc(Nc4nnc(N5CCN6CCCC[C@H]6C5)c5ccccc45)cc3)ccnc2c1` [compound 585], the EC50 stood at 0.018 µM. Regarding `COc1cnc2c(Sc3ccc(Nc4nnc(-c5ccn(C)c(=O)c5)c5ccccc45)cc3)ccnc2c1` [Example 396, 4-(4-(4-(7-Methoxy-1,5-naphthyridin-4-ylthio)phenylamino)phthalazin-1-yl)-1-methylpyridin-2(1 H)-one], the EC50 was determined as 0.008 µM. Regarding `CC(=O)Nc1ccc2nccc(Oc3ccc(Nc4nnc(-c5ccccc5)c5ccccc45)cc3)c2c1` [Example 43, N-(4-(4-(4-Phenylphthalazin-1-ylamino)phenoxy)quinolin-6-yl)acetamide], the EC50 was 0.025 µM. As for `COCCOc1cc2nccc(Oc3ccc(Nc4nnc(-c5ccccc5)c5ccccc45)cc3)c2cc1OC` [Example 393, N-(4-(6-Methoxy-7-(2-methoxyethoxy)quinolin-4-yloxy)phenyl)-4-phenylphthalazin-1-amine], the EC50 turned out to be 0.001 µM. For the molecule `Clc1ccc(-c2nnc(Nc3ccc(Cn4cnc5ccccc54)cc3)c3ccccc23)cc1` [compound 341], the EC50 is at least 1.2 µM. As for `COc1cnc2c(Sc3ccc(Nc4nnc(N5CCN6CCC[C@H]6C5)c5ccccc45)cc3)ccnc2c1` [compound 563], the EC50 was under 0.0023 µM. Regarding `COc1cnc2c(Oc3ccc(Nc4nnc(-c5cc(C)cc(C)c5)c5ccccc45)cc3)ccnc2c1` [compound 188], the EC50 is 0.051 µM. Still for that read-out and setting: as for `COc1ccc2c(Oc3ccc(Nc4nnc(-c5ccc(Cl)cc5)c5c4CCC5)cc3)ccnc2c1` [compound 412], the figure is over 1.2 µM; as for `COc1cnc2c(Oc3ccc(Nc4nnc(-c5ccc(C(N)=O)cc5)c5ccccc45)cc3)ccnc2c1` [compound 177], over 1.2 µM; as for `Clc1ccc(-c2nnc(Nc3ccc(Sc4ccnc5c4CCCN5)cc3)c3ccccc23)cc1` [compound 570], 0.008 µM. Regarding `Cc1cc2nccc(Sc3ccc(Nc4nnc(-c5ccc(Cl)cc5)c5ccccc45)cc3)c2o1` [compound 491], the EC50 was determined as 0.037 µM. For the molecule `COc1ccc2nccc(Sc3ccc(Nc4nnc(-c5cc(C)cs5)c5ccccc45)cc3)c2n1` [compound 549], the EC50 turned out to be 0.009 µM. `COc1cnc2c(Oc3ccc(Nc4nnc(-c5cc(Cl)cs5)c5ccccc45)cc3)ccnc2c1` [compound 316]: the EC50 came to 0.027 µM. Still for that read-out and setting: as for `COc1cnc2c(Sc3ccc(Nc4nnc(N5CCN(C)CC5)c5ccccc45)cc3)ccnc2c1` [compound 503], the figure is 0.014 µM; as for `COc1cc(F)cc2nccc(Oc3ccc(Nc4nnc(-c5cc(C)cs5)c5ccccc45)cc3)c12` [compound 442], under 0.0023 µM; as for `COc1cc(OC)c2c(Oc3ccc(Nc4nnc(-c5ccc(Cl)cc5)c5ccccc45)cc3)ncnc2c1` [compound 590], 0.004 µM. As for `COc1cnc2c(Sc3ccc(Nc4nnc(-c5ccc(Cl)cn5)c5ccccc45)cc3)ccnc2c1` [compound 304, 4-(5-chloro-2-pyridinyl)-N-(4-((7-(methyloxy)-1,5-naphthyridin-4-yl)thio)phenyl)-1-phthalazinamine], the EC50 came to 0.008 µM. On to `COc1cnc2c(Oc3ccc(Nc4nnc(-c5ccc(Cl)c(C)c5)c5ccccc45)cc3)ccnc2c1` [compound 236], for which the EC50 was found to be 0.011 µM. Same read-out and setting: as for `COc1cnc2c(Oc3ccc(Nc4nnc(-c5ncc(C)s5)c5ccccc45)cc3)ccnc2c1` [compound 189], the figure is 0.191 µM. Regarding `N#Cc1ccc2c(Oc3ccc(Nc4nnc(-c5ccc(Cl)c(C#N)c5)c5ccccc45)cc3)ccnc2c1` [compound 231], the EC50 was 0.067 µM. On the same count and under the same terms, as for `COc1cnc2c(Oc3ccc(Nc4nnc(-c5nccn5C)c5ccccc45)cc3)ccnc2c1` [Example 30, N-(4-(7-methoxy-1,5-naphthyridin-4-yloxy)phenyl)-4-(1-methyl-1H-imidazol-2-yl)phthalazin-1-amine], the figure is over 1.2 µM. Turning to `COc1cnc2c(Oc3ccc(Nc4nnc(-c5ccc(C)cc5)c5ccccc45)cc3F)ccnc2c1` [compound 187], the EC50 worked out at 0.006 µM. As to `COc1cnc2c(Oc3ccc(Nc4nnc(-c5ccc6[nH]ccc6c5)c5ccccc45)cc3)ccnc2c1` [compound 167], the EC50 turned out to be 0.027 µM. As to `COc1cnc2c(Oc3ccc(Nc4nnc(-c5cn[nH]c5)c5ccccc45)cc3)ccnc2c1` [compound 212], the EC50 is 0.501 µM. For `Cc1csc(-c2nnc(Nc3ccc(Oc4ncnc5ccccc45)cc3)c3ccccc23)c1` [compound 568], the EC50 is 0.034 µM. Take `Cc1csc(-c2nnc(Nc3ccc(Oc4ccnc5cccnc45)cc3)c3ccccc23)c1` [compound 447]: the EC50 came out at 0.012 µM.

For the molecule `Cc1csc(-c2nnc(Nc3ccc(Sc4ccnc5cc(C#N)sc45)cc3)c3ccccc23)c1` [compound 459], the EC50 amounted to 0.048 µM. In the case of `c1ccc(-c2nnc(Nc3ccc(Oc4ccnc5ccnn45)cc3)c3ccccc23)cc1` [compound 370], the EC50 came to 0.757 µM. On to `Cc1csc(-c2nnc(Nc3ccc(Sc4ccnc5ccsc45)cc3)c3ccccc23)c1` [compound 366], for which the EC50 was 0.002 µM. Same read-out and setting: as for `COc1ccc2nccc(Oc3ccc(Nc4nnc(-c5cc(C)cs5)c5ccccc45)cc3)c2n1` [compound 552], the figure is 0.01 µM.
